From US20250353891A1 (MEDIMMUNE LIMITED, priority 2022, published 2025)
pEC50: −log10 of the molar value. Starred links: 1 amine or outer side, 2 acyl side, 3 side chain; linkers in the order of their positions; H or OH if unused. Non-standard residues stand in square brackets, D forms with d. Residues, ends and D or L forms follow the SMILES beside them. Groups on a side chain read outwards from the residue. *: point of attachment. C20 diacid = O=C(O)CCCCCCCCCCCCCCCCCCC(=O)*; C18 diacid = O=C(O)CCCCCCCCCCCCCCCCC(=O)*; γGlu = O=C(O)[C@H](CCC(=O)[*:2])N[*:1]; αMeF = C[C@](N)(Cc1ccccc1)C(=O)O; AEEA = NCCOCCOCC(=O)O; Aib = CC(C)(N)C(=O)O

Legend:
[1] = biological target: human GLP-1 receptor (hGLP-1R) (Homo sapiens, UniProt P43220); assay: cAMP production (HTRF) in CHO cells expressing hGLP-1R; format: cell-based; set-up: expressed in transfected cells; details: for pEC50: Table 6, peptides modified at position 17, cAMP in CHO hGLP-1R cells, geometric mean, read-out: hGLP-1R EC50; for % Relative Potency Ratio: Table 6, % GLP-1R activity relative to GLP-1 / % GlucR activity relative to glucagon
human GLP-1 receptor (hGLP-1R), sequence (P43220 24-463): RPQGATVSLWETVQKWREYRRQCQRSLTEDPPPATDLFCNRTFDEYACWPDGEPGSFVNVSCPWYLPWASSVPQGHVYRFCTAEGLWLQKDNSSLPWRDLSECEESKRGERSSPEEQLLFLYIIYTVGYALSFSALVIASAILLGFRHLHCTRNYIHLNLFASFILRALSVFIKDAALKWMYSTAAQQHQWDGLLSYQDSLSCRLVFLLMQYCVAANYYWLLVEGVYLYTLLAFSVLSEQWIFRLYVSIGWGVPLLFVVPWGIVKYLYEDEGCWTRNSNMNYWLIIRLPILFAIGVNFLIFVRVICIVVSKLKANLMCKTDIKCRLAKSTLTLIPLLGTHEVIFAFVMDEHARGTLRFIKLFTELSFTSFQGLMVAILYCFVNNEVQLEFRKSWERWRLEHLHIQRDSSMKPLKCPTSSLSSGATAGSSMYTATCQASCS
Outline: (§1)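 Cells were resuspended in assay buffer at batch-optimized density, typically 1×10^5 cells/mL for hGLP-1R and 2×10^5 cells/mL for hGCGR. After 30 min incubation at room temperature with compound, cAMP was measured by two-step HTRF. EC50 values came from 4-parameter logistic fits of % Delta F.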

[2] = biological target: human glucagon receptor (hGCGR) (Homo sapiens, UniProt P47871); assay: cAMP production (HTRF) in CHO cells expressing hGCGR; format: cell-based; set-up: expressed in transfected cells; details: Table 6, peptides modified at position 17; cAMP in CHO hGCGR cells; geometric mean; read-out: hGluc-R EC50
human glucagon receptor (hGCGR), sequence (P47871 26-477): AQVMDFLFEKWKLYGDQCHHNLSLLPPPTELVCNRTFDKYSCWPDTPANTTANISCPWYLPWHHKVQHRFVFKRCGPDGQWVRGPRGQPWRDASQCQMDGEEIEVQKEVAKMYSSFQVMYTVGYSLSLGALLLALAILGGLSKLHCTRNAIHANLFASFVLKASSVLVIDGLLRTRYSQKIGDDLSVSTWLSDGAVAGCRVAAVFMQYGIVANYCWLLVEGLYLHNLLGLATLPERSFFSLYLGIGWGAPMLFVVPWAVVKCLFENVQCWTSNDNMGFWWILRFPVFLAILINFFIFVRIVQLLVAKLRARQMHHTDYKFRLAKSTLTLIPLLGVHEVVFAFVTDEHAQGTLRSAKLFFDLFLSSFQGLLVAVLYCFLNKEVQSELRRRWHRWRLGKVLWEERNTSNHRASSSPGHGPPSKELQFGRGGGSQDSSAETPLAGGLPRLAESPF
Outline: as §1

Compound: CC(C)C[C@H](NC(=O)[C@H](Cc1c[nH]c2ccccc12)NC(=O)[C@H](C)NC(=O)[C@@H](NC(=O)[C@H](Cc1ccccc1)NC(=O)[C@H](CC(=O)O)NC(=O)[C@H](CCC(N)=O)NC(=O)[C@H](C)NC(=O)[C@H](CCCNC(=N)N)NC(=O)[C@H](CCCCNC(=O)COCCOCCNC(=O)COCCOCCNC(=O)CC[C@H](NC(=O)CCCCCCCCCCCCCCCCC(=O)O)C(=O)O)NC(=O)[C@@H](NC(=O)[C@H](CC(=O)O)NC(=O)[C@H](CC(C)C)NC(=O)[C@](C)(Cc1ccccc1)NC(=O)[C@H](CCCCN)NC(=O)[C@H](CO)NC(=O)[C@@H](NC(=O)[C@H](CC(=O)O)NC(=O)[C@H](CO)NC(=O)[C@@H](NC(=O)[C@H](Cc1ccccc1)NC(=O)[C@@H](NC(=O)CNC(=O)[C@H](CCC(N)=O)NC(=O)C(C)(C)NC(=O)[C@@H](N)Cc1c[nH]cn1)[C@@H](C)O)[C@@H](C)O)C(C)C)[C@@H](C)O)C(C)C)C(=O)N[C@@H](CCC(=O)O)C(=O)N[C@@H](C)C(=O)NCC(=O)NCC(=O)O [Peptide 411] (H-H[Aib]QGTFTSDVSK[αMeF]LDTK([AEEA-AEEA-γGlu-C18 diacid])RAQDFVAWLEAGG-OH; N-terminus assumed)
- pEC50 [1]: 10.01
- % Relative Potency Ratio [1]: 7.6
- pEC50 [2]: 9.42

Compound: CC(C)C[C@H](NC(=O)[C@H](Cc1c[nH]c2ccccc12)NC(=O)[C@H](C)NC(=O)[C@@H](NC(=O)[C@H](Cc1ccccc1)NC(=O)[C@H](CC(=O)O)NC(=O)[C@H](CCC(N)=O)NC(=O)[C@H](C)NC(=O)[C@H](CCCNC(=N)N)NC(=O)[C@H](CCCCNC(=O)COCCOCCNC(=O)COCCOCCNC(=O)CC[C@H](NC(=O)CCCCCCCCCCCCCCCCCCC(=O)O)C(=O)O)NC(=O)[C@@H](NC(=O)[C@H](CC(=O)O)NC(=O)[C@H](CC(C)C)NC(=O)[C@](C)(Cc1ccccc1)NC(=O)[C@H](CCCCN)NC(=O)[C@H](CO)NC(=O)[C@@H](NC(=O)[C@H](CC(=O)O)NC(=O)[C@H](CO)NC(=O)[C@@H](NC(=O)[C@H](Cc1ccccc1)NC(=O)[C@@H](NC(=O)CNC(=O)[C@H](CCC(N)=O)NC(=O)C(C)(C)NC(=O)[C@@H](N)Cc1c[nH]cn1)[C@@H](C)O)[C@@H](C)O)C(C)C)[C@@H](C)O)C(C)C)C(=O)N[C@@H](CCC(=O)O)C(=O)N[C@@H](C)C(=O)NCC(=O)NCC(=O)O [Peptide 412] (H-H[Aib]QGTFTSDVSK[αMeF]LDTK([AEEA-AEEA-γGlu-C20 diacid])RAQDFVAWLEAGG-OH; N-terminus assumed)
- pEC50 [1]: 9.73
- % Relative Potency Ratio [1]: 4.2
- pEC50 [2]: 9.40

Compound: CC(C)C[C@H](NC(=O)[C@H](Cc1c[nH]c2ccccc12)NC(=O)[C@H](C)NC(=O)[C@@H](NC(=O)[C@H](Cc1ccccc1)NC(=O)[C@H](CC(=O)O)NC(=O)[C@H](CCC(N)=O)NC(=O)[C@H](C)NC(=O)[C@H](CCCNC(=N)N)NC(=O)[C@H](CCCCNC(=O)COCCOCCNC(=O)COCCOCCNC(=O)CC[C@H](NC(=O)CC[C@H](NC(=O)CCCCCCCCCCCCCCCCCCC(=O)O)C(=O)O)C(=O)O)NC(=O)[C@@H](NC(=O)[C@H](CC(=O)O)NC(=O)[C@H](CC(C)C)NC(=O)[C@](C)(Cc1ccccc1)NC(=O)[C@H](CCCCN)NC(=O)[C@H](CO)NC(=O)[C@@H](NC(=O)[C@H](CC(=O)O)NC(=O)[C@H](CO)NC(=O)[C@@H](NC(=O)[C@H](Cc1ccccc1)NC(=O)[C@@H](NC(=O)CNC(=O)[C@H](CCC(N)=O)NC(=O)C(C)(C)NC(=O)[C@@H](N)Cc1c[nH]cn1)[C@@H](C)O)[C@@H](C)O)C(C)C)[C@@H](C)O)C(C)C)C(=O)N[C@@H](CCC(=O)O)C(=O)N[C@@H](C)C(=O)NCC(=O)NCC(=O)O [Peptide 413]
- pEC50 [1]: 9.39
- % Relative Potency Ratio [1]: 5.0
- pEC50 [2]: 8.99

Compound: CC(C)C[C@H](NC(=O)[C@H](Cc1c[nH]c2ccccc12)NC(=O)[C@H](CCCNC(=N)N)NC(=O)[C@@H](NC(=O)[C@H](Cc1ccccc1)NC(=O)[C@H](CC(=O)O)NC(=O)[C@H](CCCNC(=N)N)NC(=O)[C@H](C)NC(=O)[C@H](CCCNC(=N)N)NC(=O)[C@H](CCCCNC(=O)COCCOCCNC(=O)COCCOCCNC(=O)CC[C@H](NC(=O)CCCCCCCCCCCCCCCCC(=O)O)C(=O)O)NC(=O)[C@H](CCCCN)NC(=O)[C@H](CC(=O)O)NC(=O)[C@H](CC(C)C)NC(=O)[C@](C)(Cc1ccccc1)NC(=O)[C@H](CCCCN)NC(=O)[C@H](CO)NC(=O)[C@@H](NC(=O)[C@H](CC(=O)O)NC(=O)[C@H](CO)NC(=O)[C@@H](NC(=O)[C@H](Cc1ccccc1)NC(=O)[C@@H](NC(=O)CNC(=O)[C@H](CCC(N)=O)NC(=O)C(C)(C)NC(=O)[C@@H](N)Cc1c[nH]cn1)[C@@H](C)O)[C@@H](C)O)C(C)C)C(C)C)C(=O)N[C@@H](CC(C)C)C(=O)NC(C)(C)C(=O)N[C@@H](CCC(=O)O)C(=O)O [Peptide 414] (H-H[Aib]QGTFTSDVSK[αMeF]LDKK([AEEA-AEEA-γGlu-C18 diacid])RARDFVRWLL[Aib]E-OH; N-terminus assumed)
- pEC50 [1]: 10.49
- % Relative Potency Ratio [1]: 1.6
- pEC50 [2]: 10.57

Compound: CC(C)C[C@H](NC(=O)[C@H](Cc1c[nH]c2ccccc12)NC(=O)[C@H](CCCNC(=N)N)NC(=O)[C@@H](NC(=O)[C@H](Cc1ccccc1)NC(=O)[C@H](CC(=O)O)NC(=O)[C@H](CCC(N)=O)NC(=O)[C@H](C)NC(=O)[C@H](CCCNC(=N)N)NC(=O)[C@H](CCCCNC(=O)COCCOCCNC(=O)COCCOCCNC(=O)CC[C@H](NC(=O)CCCCCCCCCCCCCCCCC(=O)O)C(=O)O)NC(=O)[C@H](CO)NC(=O)[C@H](CCC(=O)O)NC(=O)[C@H](CC(C)C)NC(=O)[C@](C)(Cc1ccccc1)NC(=O)[C@H](CCCCN)NC(=O)[C@H](CO)NC(=O)[C@@H](NC(=O)[C@H](CC(=O)O)NC(=O)[C@H](CO)NC(=O)[C@@H](NC(=O)[C@H](Cc1ccccc1)NC(=O)[C@@H](NC(=O)CNC(=O)[C@H](CCC(N)=O)NC(=O)C(C)(C)NC(=O)[C@@H](N)Cc1c[nH]cn1)[C@@H](C)O)[C@@H](C)O)C(C)C)C(C)C)C(=O)N[C@@H](CCC(=O)O)C(=O)N[C@@H](C)C(=O)NC(C)(C)C(=O)NCC(=O)O [Peptide 415] (H-H[Aib]QGTFTSDVSK[αMeF]LESK([AEEA-AEEA-γGlu-C18 diacid])RAQDFVRWLEA[Aib]G-OH; N-terminus assumed)
- pEC50 [1]: 10.83
- % Relative Potency Ratio [1]: 40.6
- pEC50 [2]: 9.52

Compound: CC(C)C[C@H](NC(=O)[C@H](Cc1c[nH]c2ccccc12)NC(=O)[C@H](CCCNC(=N)N)NC(=O)[C@@H](NC(=O)[C@H](Cc1ccccc1)NC(=O)[C@H](CC(=O)O)NC(=O)[C@H](CCC(N)=O)NC(=O)[C@H](C)NC(=O)[C@H](CCCNC(=N)N)NC(=O)[C@H](CCCCNC(=O)COCCOCCNC(=O)COCCOCCNC(=O)CC[C@H](NC(=O)CCCCCCCCCCCCCCCCCCC(=O)O)C(=O)O)NC(=O)[C@H](CO)NC(=O)[C@H](CCC(=O)O)NC(=O)[C@H](CC(C)C)NC(=O)[C@](C)(Cc1ccccc1)NC(=O)[C@H](CCCCN)NC(=O)[C@H](CO)NC(=O)[C@@H](NC(=O)[C@H](CC(=O)O)NC(=O)[C@H](CO)NC(=O)[C@@H](NC(=O)[C@H](Cc1ccccc1)NC(=O)[C@@H](NC(=O)CNC(=O)[C@H](CCC(N)=O)NC(=O)C(C)(C)NC(=O)[C@@H](N)Cc1c[nH]cn1)[C@@H](C)O)[C@@H](C)O)C(C)C)C(C)C)C(=O)N[C@@H](CCC(=O)O)C(=O)N[C@@H](C)C(=O)NC(C)(C)C(=O)NCC(=O)O [Peptide 416] (H-H[Aib]QGTFTSDVSK[αMeF]LESK([AEEA-AEEA-γGlu-C20 diacid])RAQDFVRWLEA[Aib]G-OH; N-terminus assumed)
- pEC50 [1]: 10.17
- % Relative Potency Ratio [1]: 17.0
- pEC50 [2]: 9.24

Compound: CC(C)C[C@H](NC(=O)[C@H](Cc1c[nH]c2ccccc12)NC(=O)[C@H](C)NC(=O)[C@@H](NC(=O)[C@H](Cc1ccccc1)NC(=O)[C@H](CC(=O)O)NC(=O)[C@H](CCC(N)=O)NC(=O)[C@H](C)NC(=O)[C@H](CCCNC(=N)N)NC(=O)[C@H](CCCCNC(=O)COCCOCCNC(=O)COCCOCCNC(=O)CC[C@H](NC(=O)CC[C@H](NC(=O)CCCCCCCCCCCCCCCCC(=O)O)C(=O)O)C(=O)O)NC(=O)[C@@H](NC(=O)[C@H](CC(=O)O)NC(=O)[C@H](CC(C)C)NC(=O)[C@](C)(Cc1ccccc1)NC(=O)[C@H](CCCCN)NC(=O)[C@H](CO)NC(=O)[C@@H](NC(=O)[C@H](CC(=O)O)NC(=O)[C@H](CO)NC(=O)[C@@H](NC(=O)[C@H](Cc1ccccc1)NC(=O)[C@@H](NC(=O)CNC(=O)[C@H](CCC(N)=O)NC(=O)C(C)(C)NC(=O)[C@@H](N)Cc1c[nH]cn1)[C@@H](C)O)[C@@H](C)O)C(C)C)[C@@H](C)O)C(C)C)C(=O)N[C@@H](CCC(=O)O)C(=O)N[C@@H](C)C(=O)NC(C)(C)C(=O)NCC(=O)O [Peptide 417] (H-H[Aib]QGTFTSDVSK[αMeF]LDTK([AEEA-AEEA-γGlu-γGlu-C18 diacid])RAQDFVAWLEA[Aib]G-OH; N-terminus assumed)
- pEC50 [1]: 10.47
- % Relative Potency Ratio [1]: 1.0
- pEC50 [2]: 10.78
